These results are taken from ChEMBL document CHEMBL3853265 (Medchemcomm, 2016).

One series deals with Rattus norvegicus. Nature of the series: Toxicity in po dosed Wistar Han rat assessed as drug tolerance administered for 14 days. Format: organism-based. To be noted: in vivo, 336 h.
In series [1] the target is T1, Solute carrier family 22 member 12 (Homo sapiens, UniProt Q96S37).
T1 sequence (Q96S37 whole entry): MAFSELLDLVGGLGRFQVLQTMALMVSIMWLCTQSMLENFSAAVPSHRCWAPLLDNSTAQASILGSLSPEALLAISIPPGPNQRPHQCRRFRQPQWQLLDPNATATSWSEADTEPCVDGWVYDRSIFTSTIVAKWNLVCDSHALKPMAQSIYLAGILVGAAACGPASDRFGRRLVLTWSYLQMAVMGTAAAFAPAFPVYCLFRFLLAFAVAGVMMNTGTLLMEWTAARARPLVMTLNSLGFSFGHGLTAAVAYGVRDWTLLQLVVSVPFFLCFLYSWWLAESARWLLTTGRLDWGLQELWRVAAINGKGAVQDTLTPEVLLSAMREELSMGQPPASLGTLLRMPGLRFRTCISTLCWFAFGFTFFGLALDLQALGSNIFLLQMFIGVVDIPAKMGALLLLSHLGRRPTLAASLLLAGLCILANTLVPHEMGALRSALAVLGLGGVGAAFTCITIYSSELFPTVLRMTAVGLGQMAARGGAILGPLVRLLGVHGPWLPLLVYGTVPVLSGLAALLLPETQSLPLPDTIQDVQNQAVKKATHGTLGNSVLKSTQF
Nature of the series: Inhibition of human C-terminal eGFP-tagged URAT1 long isoform expressed in CHO cells assessed as decrease in [14C]-uric acid uptake preincubated for 15 mins followed by [14C]-uric acid addition and incubated in dark for 3 hrs by scintillation counting method. The series is classed as cell-based.

Series [2] can be described thus: Intrinsic clearance in dog liver microsomes. Format: ADME, Canis lupus familiaris. To be noted: read-out: CLH. A general note: Microsomes from liver hold many membrane-bound enzymes, among them those of drug oxidation.
Series [3] in a line: Intrinsic clearance in human hepatocytes assessed per 10^6 cells. Format: ADME, cell-based, Hepatocyte.
Series [4] in a line: Intrinsic clearance in rat hepatocytes assessed per 10^6 cells. Format: ADME, cell-based, Hepatocyte.
A short description of series [5]: Fraction unbound in human plasma. The series is classed as ADME, cell-free.
For series [6], the target named is T2, Solute carrier family 22 member 6 (Homo sapiens, UniProt Q4U2R8).
T2 sequence (Q4U2R8 whole entry): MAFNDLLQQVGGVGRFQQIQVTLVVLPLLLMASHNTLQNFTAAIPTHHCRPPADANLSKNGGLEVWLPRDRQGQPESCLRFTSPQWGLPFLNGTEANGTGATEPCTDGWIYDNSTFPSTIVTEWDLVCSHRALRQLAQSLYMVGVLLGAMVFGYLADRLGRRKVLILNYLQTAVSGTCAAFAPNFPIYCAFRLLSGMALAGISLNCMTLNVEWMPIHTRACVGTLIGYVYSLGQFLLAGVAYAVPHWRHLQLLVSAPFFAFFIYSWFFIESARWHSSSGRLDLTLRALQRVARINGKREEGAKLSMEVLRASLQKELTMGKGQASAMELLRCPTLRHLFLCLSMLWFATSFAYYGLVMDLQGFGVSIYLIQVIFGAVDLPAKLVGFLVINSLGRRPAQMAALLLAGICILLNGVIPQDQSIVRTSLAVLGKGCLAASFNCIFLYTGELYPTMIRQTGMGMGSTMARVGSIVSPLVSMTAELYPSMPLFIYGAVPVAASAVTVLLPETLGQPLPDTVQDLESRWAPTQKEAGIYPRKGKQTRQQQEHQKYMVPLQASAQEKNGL
Description: Inhibition of OAT1 (unknown origin).

Series [7] deals with T3, Organic anion transporter 3 (Homo sapiens, UniProt Q8TCC7).
T3 sequence (Q8TCC7 whole entry): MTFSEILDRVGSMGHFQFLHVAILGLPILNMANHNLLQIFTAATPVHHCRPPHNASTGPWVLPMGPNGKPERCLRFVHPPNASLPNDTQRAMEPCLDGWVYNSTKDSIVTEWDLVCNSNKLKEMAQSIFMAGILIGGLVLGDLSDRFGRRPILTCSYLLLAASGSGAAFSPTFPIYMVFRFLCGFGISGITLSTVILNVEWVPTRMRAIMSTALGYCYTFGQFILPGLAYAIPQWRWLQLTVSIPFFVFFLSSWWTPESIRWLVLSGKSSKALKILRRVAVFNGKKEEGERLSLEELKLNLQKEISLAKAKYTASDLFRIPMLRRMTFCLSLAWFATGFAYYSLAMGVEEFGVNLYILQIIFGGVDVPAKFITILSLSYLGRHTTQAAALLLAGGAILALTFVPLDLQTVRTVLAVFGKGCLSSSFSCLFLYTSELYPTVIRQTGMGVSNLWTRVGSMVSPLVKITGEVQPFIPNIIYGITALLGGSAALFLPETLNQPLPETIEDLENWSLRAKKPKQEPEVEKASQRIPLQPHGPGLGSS
Nature of the series: Inhibition of OAT3 (unknown origin).

The target of series [8] is T4, Solute carrier family 22 member 11 (Homo sapiens, UniProt Q9NSA0).
T4 sequence (Q9NSA0 whole entry): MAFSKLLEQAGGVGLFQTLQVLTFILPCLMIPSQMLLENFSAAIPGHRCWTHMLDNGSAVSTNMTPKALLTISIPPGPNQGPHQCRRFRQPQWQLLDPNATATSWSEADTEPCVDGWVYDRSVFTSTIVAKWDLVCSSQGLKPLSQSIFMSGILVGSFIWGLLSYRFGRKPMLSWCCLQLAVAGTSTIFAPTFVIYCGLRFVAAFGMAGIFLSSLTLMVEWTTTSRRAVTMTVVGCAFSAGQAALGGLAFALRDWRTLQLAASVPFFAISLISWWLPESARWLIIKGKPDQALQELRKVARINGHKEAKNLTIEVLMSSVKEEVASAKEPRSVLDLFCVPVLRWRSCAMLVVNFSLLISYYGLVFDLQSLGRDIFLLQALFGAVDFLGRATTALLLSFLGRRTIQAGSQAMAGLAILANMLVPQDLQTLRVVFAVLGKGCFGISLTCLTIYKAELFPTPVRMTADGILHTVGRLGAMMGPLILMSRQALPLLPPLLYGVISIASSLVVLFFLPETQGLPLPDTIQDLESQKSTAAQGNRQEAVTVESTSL
Nature of the series: Inhibition of OAT4 (unknown origin).

Series [9] is described as follows: Mutagenicity in […] by Ames test in presence of […]. Format: toxicity.
The target in series [10] is Sodium channel protein type 5 subunit alpha (Homo sapiens, UniProt Q14524). Description: Inhibition of human NaV1.5 expressed in HEK293 cells by patch clamp method. The series is classed as cell-based. On the technique in general: The patch-clamp technique gives a direct electrical read-out from membranes.
Series [11] in a line: Volume of distribution at steady state in rat at 1 mg/kg, iv and 3 mg/kg, po. Particulars: in vivo, read-out: Vdss. The series is classed as ADME, organism-based.
Series [12] in a line: Oral bioavailability in rat at 3 mg/kg. The series is classed as ADME, organism-based. To be noted: in vivo.
A short description of series [13]: Renal clearance in rat at 1 mg/kg, iv and 3 mg/kg, po relative to GFR x fraction unbound. Format: ADME, organism-based. Particulars: in vivo.
Series [14] in a line: Volume of distribution at steady state in dog at 0.363 mg/kg, iv and 0.737 mg/kg, po. Format: ADME, organism-based, Canis lupus familiaris. Particulars: in vivo, read-out: Vdss.
A short description of series [15]: Drug metabolism in dog hepatocytes. Format: ADME, cell-based, Canis lupus familiaris, Hepatocyte.
Series [16] is described as follows: Toxicity in dog assessed as increase in body temperature at 10 mg/kg, po administered as single dose measured up to 3 days post dose. The series is classed as organism-based, Canis lupus familiaris. Particulars: in vivo, 72 h.
Series [17] is described as follows: Unbound Cmax in dog at 10 mg/kg, po administered as single dose. To be noted: in vivo. The series is classed as ADME, organism-based, Canis lupus familiaris.

Sodium channel protein type 5 subunit alpha, sequence (Q14524 whole entry): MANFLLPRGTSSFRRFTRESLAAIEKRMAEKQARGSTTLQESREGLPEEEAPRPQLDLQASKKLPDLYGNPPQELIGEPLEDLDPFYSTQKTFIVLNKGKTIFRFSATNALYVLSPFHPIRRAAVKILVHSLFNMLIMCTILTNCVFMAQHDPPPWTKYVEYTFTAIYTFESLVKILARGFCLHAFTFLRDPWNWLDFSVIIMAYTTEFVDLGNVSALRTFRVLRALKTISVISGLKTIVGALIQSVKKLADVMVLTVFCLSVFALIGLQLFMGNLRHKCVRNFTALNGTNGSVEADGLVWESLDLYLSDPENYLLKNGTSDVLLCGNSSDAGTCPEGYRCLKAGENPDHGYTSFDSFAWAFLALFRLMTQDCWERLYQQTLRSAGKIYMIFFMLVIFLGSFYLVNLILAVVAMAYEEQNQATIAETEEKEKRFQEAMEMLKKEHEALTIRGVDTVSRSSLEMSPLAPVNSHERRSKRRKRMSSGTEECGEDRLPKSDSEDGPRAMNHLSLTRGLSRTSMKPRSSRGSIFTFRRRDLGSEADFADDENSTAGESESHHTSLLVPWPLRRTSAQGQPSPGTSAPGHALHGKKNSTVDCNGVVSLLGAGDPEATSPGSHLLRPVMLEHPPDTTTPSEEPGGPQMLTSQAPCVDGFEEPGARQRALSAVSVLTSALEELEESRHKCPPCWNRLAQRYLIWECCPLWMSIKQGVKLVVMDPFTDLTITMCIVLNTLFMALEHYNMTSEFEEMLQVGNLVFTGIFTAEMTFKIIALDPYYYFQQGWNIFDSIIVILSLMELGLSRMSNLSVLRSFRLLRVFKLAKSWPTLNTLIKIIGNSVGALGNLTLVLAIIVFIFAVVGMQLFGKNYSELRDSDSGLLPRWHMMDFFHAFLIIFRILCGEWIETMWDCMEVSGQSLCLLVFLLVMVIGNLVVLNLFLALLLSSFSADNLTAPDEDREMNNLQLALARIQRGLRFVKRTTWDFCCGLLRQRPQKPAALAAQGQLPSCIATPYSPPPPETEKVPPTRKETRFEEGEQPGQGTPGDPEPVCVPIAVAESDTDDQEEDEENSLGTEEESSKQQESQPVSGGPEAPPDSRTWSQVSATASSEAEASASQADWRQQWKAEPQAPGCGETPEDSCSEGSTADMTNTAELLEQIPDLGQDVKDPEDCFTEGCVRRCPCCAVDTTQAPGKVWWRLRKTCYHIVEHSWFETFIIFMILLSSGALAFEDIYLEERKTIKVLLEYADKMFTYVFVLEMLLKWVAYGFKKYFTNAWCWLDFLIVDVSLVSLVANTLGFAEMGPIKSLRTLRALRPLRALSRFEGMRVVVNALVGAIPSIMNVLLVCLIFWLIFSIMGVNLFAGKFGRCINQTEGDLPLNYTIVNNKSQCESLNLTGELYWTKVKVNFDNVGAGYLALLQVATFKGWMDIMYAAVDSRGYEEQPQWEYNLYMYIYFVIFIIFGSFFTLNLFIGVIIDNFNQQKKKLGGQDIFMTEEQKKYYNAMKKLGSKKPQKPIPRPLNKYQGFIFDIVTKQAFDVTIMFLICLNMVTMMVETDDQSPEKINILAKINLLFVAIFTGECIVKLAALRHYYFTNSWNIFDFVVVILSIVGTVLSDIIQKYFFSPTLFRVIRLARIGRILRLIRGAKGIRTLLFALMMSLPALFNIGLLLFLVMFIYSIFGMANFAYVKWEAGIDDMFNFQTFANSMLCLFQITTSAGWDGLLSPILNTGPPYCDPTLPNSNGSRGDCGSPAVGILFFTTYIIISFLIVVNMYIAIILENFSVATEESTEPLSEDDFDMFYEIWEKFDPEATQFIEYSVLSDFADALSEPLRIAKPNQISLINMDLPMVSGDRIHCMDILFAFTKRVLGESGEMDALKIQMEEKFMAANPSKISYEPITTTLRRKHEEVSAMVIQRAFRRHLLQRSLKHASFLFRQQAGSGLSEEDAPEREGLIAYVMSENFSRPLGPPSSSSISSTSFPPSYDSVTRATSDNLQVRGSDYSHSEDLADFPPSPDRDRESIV

On to `O=S(=O)(Nc1cncc(C(F)(F)F)c1)c1ccccc1C(F)(F)F`, for which the Activity result is recorded as “<= 100 mg/kg/day” in the series on Rattus norvegicus and “Non-Toxic” in series [9]. The IC50 was 0.036 µM in [1]; 9.3 µM in series [6]; 3.4 µM in series [7]; 8.5 µM in series [8]; > 30 µM in series [10]. Also, in series [2], the microsomal CLint was < 18 µL/min/mg. Also, the CLH is 6 µL/min/1e6 cells in series [3] and 7 µL/min/1e6 cells in series [4]. The same compound displayed a fraction unbound in series [5] of 0.0034. For the same compound, the Vd in series [11] was determined as 0.14 L/kg. In addition, in series [12], the bioavailability is 150%. Further, the CL in series [13] was < 2%.
Consider `O=S(=O)(Nc1ccc(C(F)(F)F)nc1)c1ccccc1C(F)(F)F`, for which the Activity result in the series with Rattus norvegicus was “<= 100 mg kg-1”; in [9], “Non-Toxic”; in series [16], “Toxic”. Further, the IC50 in [1] is 0.042 µM; in series [6], 12.3 µM; in series [7], 3.3 µM; in series [8], 9.4 µM; in series [10], > 100 µM. Also, the microsomal CLint in [2] was < 18 µL/min/mg. The CLH in series [3] and in series [4] was < 6 µL/min/1e6 cells throughout. In [5], the fraction unbound came out at 0.0084. Also, the Vd in [11] turned out to be 0.4 L/kg; in series [14], 0.12 L/kg. In addition, the bioavailability in [12] worked out at 98%. Besides, the CL in [13] was < 2%. For the same compound, in [15], the Drug metabolism entry is “Metabolite_Notdetected”. In addition, the fCmax in series [17] is 1498 nM.

By IC50 is commonly meant the concentration that gives 50% inhibition. The fraction unbound is free concentration divided by total concentration. Lower therefore signals extensive binding.
